Test results reported in patent publication US20220339134A1, “VERY-LONG-CHAIN POLYUNSATURATED FATTY ACIDS, ELOVANOID HYDROXYLATED DERIVATIVES, AND METHODS OF USE” (Board of Supervisors of Louisiana State University and …, priority 2019, published 2022).

Experiments:
RPE and PRC = experiment: Subretinal injection of OAβ in WT mice +/- ELVs (RPE flat mount, OCT, qPCR, Western blot); assay type: in vivo; conditions: for OAβ-activated senescence program (p16INK4a, MMP1, p53, p21, p27, Il-6, SASP secretome) followed by RPE and PRC demise: summary of mouse and human RPE data
Text: (A) In vivo experimental design: 6-month-old C57BL/6J WT mice were divided into 7 groups (n=12/group): non-injected, PBS, OAβ only, OAβ+ELV-N-32, OAβ+ELV-N-34, ELV-N-32 only and ELV-N-34 only. On day 3, mRNA were isolated for Real-Time PCR. On day 7, mice were subjected to OCT and then eyes enucleated and processed for whole mount RPE staining and Western blots. (B) Whole flat mount of RPE with tight junction marker, Zonula occludens-1 (ZO-1) antibody. OAβ disrupted RPE morphology. (C) OAβ effects on retina and RPE by OCT. (D) Thickness of PRC layer was thinner in OAβ injected group. (E) RPE gene expression after Oaβ (1-42) injection and treatment with ELVs. (E-G) Gene expression in the same functional group were plotted. Senescence- and AMD-related genes (E), and collagenases, gelatinase, stromelysins and others matrix metalloproteinases (MMP) (F) and autophagy (G). (H) p16INK4a, a key marker for senescence, western blots of RPE. (I) Retina apoptosis gene expression after OAβ (1-42) injection and treatment with ELVs. (*P<0.05, student t-test).
ELVs restore RPE morphology and reduce gene expression after subretinal injection of OAβ in WT mice. (A) Mice were divided into 7 groups: non-injected, PBS, OAβ only, OAβ+ELV-N-32, OAβ+ELV-N-34, ELV-N-32 only and ELV-N-34 only. On day 3, mRNA were isolated for RT-PCR. On day 7, mice were subjected to OCT and then eyes were enucleated and processed to whole mount RPE staining and Western blot. (B) Whole flat mount of RPE. OAβ disrupted RPE morphology. However, RPE were less damage in the ELVs treatment group as well as PBS, ELVs alone did non induce changes. (C) Evaluation the OAβ effects on retina and RPE by OCT. (D) The thickness of PRC was thin in the OAβ injected group. OAβ cause the cell death of PRC, as the thinner in OCT measurement. (E) RPE gene expression after OAβ (1-42) injection and treatment with ELVs. 3 days after injection, the RNAs from RPE were isolated, reverse transcribed into cDNA and subjected to RT-PCR with different primers. Genes in the same functional group were plotted in the same chart, including senescence- and AMD-related genes (E), and collagenases, gelatinase, stromelysins and others matrix metalloproteinases (MMP) (F) and autophagy (G). (H) p16INK4a western blots of RPE/Choroid. […] (I) Retina gene expression after OAβ (1-42) injection and treatment with ELVs. OAβ activates apoptosis genes in the retina. […] (*P<0.05, using student t-test comparison).
All animal experiments were performed according to ARVO Statement for the Use of Animals in Ophthalmic and Vision Research, and the protocol was approved by LSU Health New Orleans' Institutional Animal Care and Use Committee (IACUC). 6-month-old 5×FAD mice (stock number: 34848-JAX, The Jackson Laboratory, Bar Harbor, Me., USA), co-overexpress FAD mutant forms of human amyloid precursor protein (the Swedish mutation: K670N, M671L; the Florida mutation: I716V; and the London mutation: V7171) and presenilin 1 (PS1, encoded by Psen1: M146L, L286V) transgenes under transcriptional control of the neuron-specific mouse Thy1 promoter. 5×FAD mice were hemizygotes with respect to the transgenes and non-transgenic WT littermates. Genotyping was performed by PCR of tail DNA. All analyses were carried out blind with respect to the mice genotype. For the subretinal injection, 6-month-old C57BL/6J mice were anesthetized by an intraperitoneal injection of ketamine/xylazine, pupils dilated with 1.0% tropicamide (Akorn, Ill., USA); and 0.5% Proparacaine Hydrochloride (Akorn) was applied for topical anesthesia. Eyes were punctured with a 30-gauge needle between the corneoscleral junction and the ora serrata into the vitreous cavity without disturbing the lens. Compounds were delivered to the subretinal region using a 33-gauge blunt needle attached to a 5p.1 Hamilton syringe (Hamilton Company, Reno, Nev., USA) under a dissecting microscope. Non-injected mice were used as negative control while the PBS injected mice were used for sham. […]

hypothalamic neurons = experiment: Fluoro-Jade B staining of organotypic hypothalamus slices; assay type: cell-based, db/db mice; conditions: 500 nM, 48 h incubation; db/db hypothalamus slices
Experimental: Fluoro-Jade b (F-Jb) stains degenerating neurons. […] 48 h incubation with 500 nM ELV34 elicited neuroprotection that was reflected in the decrease of F-Jb signal (a).

[1] = co-injected with OAβ subretinally, then topical ELV, day 7

For `CC/C=C\C[C@H](O)\C=C/C=C/C=C/[C@H](O)C/C=C\C/C=C\CCCCCCCCCCCCCCC(=O)O` [ELV-N-34], the “PRC degeneration / ONL after ELV injected alone” value (RPE and PRC; ELV alone, no OAβ, subretinal) was “did not yield PRC degeneration”, the “PRC protection (PRC layer, OCT)” value (RPE and PRC; [1]) was “protection of PRC” and the “RPE morphology (ZO-1 whole flat mount)” value (RPE and PRC; [1]) was “restoration of RPE morphology”. The “p16INK4a protein (western blot of RPE/Choroid)” value (RPE and PRC; elevated by OAβ injection, day 7) was “down regulated”, the “OAβ-activated senescence program (p16INK4a, MMP1, p53, p21, p27, Il-6, SASP secretome) followed by RPE and PRC demise” value (from here on “OAβ-activated senescence program”) (RPE and PRC) was “blunt these events and elicit protection to both cells” and the “OAβ-activated senescence program” value (RPE and PRC; listed as ELV 34) was “downregulatory mediators of OAβ-evoked senescence”. The “OAβ-activated senescence program” value (RPE and PRC; listed as elovanoid 34) was “blunt these events and elicits protection” and the “F-Jb signal (degenerating neurons)” value (hypothalamic neurons) was “decrease”.
